According to patent US8163795B2, “Chroman derivatives, medicaments and use in therapy” (Marshall Edwards, Inc., priority 2004, dated 2012):
Read-outs that look alike come from different tables or passages of the source.

Key:
[1] = test system: Neonatal foreskin fibroblasts (NFF); experiment: Proliferation assay (MTT), normal cell toxicity; type: cell-based, Human; conditions: Homo sapiens, Fibroblast, read-out: IC50
Protocol: (§1) The normal cell line NFF (neonatal foreskin fibroblasts) was a sift from Dr. Peter Parsons (Queensland Institute of Medical Research). RK (rabbit kidney) cells were obtained from Miller Whalley (Macquarie University). Both cell lines were cultured in RPMI supplemented with 10% FCS(CSL, Australia), penicillin (100 U/ml), streptomycin ([…]), L-glutamine (2 mM) and sodium bicarbonate (1.2 g/L), and cultured at 37° C. in a humidified atmosphere of 5% CO2.
(§2) IC50 values were determined for each cell line. Cells were seeded in 96-well plates at an appropriate cell density as determined from growth kinetics analysis and cultured for 5 days in the absence and presence of the test compounds. Cell proliferation was assessed after the addition of 20 μl of 3-4,5 dimethylthiazol-2,5-diphenyl tetrazolium bromide (MTT, 2.5 mg/ml in PBS, Sigma) for 3-4 hrs at 37° C. according to manufacturer's instructions. IC50 values were calculated from semi-log plots of % of control proliferation on the y-axis against log dose on the x-axis.

rabbit kidney cells (RK) = experiment: Proliferation assay (MTT), normal cell toxicity; type: cell-based; conditions: Oryctolagus cuniculus; rabbit kidney cells; read-out: IC50
Protocol: as §1, §2

[2] = test system: CP70 ovarian cancer cell line; experiment: Proliferation assay (MTT); type: cell-based; conditions: Ovarian CP70, read-out: IC50
[3] = test system: HPAC (CRL-2119) pancreatic cancer cell line; experiment: Proliferation assay (MTT); type: cell-based, human; conditions: Homo sapiens, HPAC, read-out: IC50
A2058 melanoma cell line = experiment: Proliferation assay (MTT); type: cell-based; conditions: Homo sapiens
cancer cell lines = experiment: Proliferation assays, statements over several cancer cell lines; type: cell-based; conditions: SKOV-3, PC3, MCF-7, MDA-MB-468, HTB-138, HPAC, large cell lung cancer
Protocol: as §2

[4] = DHE and HMC pharmacokinetics, oral, mice; type: in vivo, female BALB/c mice
Protocol: HMC and DHE were prepared as homogenous suspensions in 1% CMC (m:v, water). Both formulations were delivered orally by gavage to female BALB/c mice at a dosage of 50 mg/kg. Three animals were allocated to each timepoint (15 min, 30 min, 1 hr, 4 hr and 24 hr). At each respective timepoint, animals were euthanased by cervical dislocation and blood collected. Free HMC was analysed by mass spectroscopy.

[5] = HMC and HHC pharmacokinetics, oral, human patients; type: in vivo; conditions: plasma
Protocol: Human patients were orally dosed with 200 mg of either HMC or HHC. For each challenged patient, blood was taken over a 6 hour period and the results averaged to characterise the plasma pharmacokinetics.

[6] = HMC pharmacokinetics i.v. and i.p., mice; type: in vivo, female BALB/c mice; conditions: for concentration at 0.25 hr / concentration at 0.5 h / concentration at 4 hr / concentration at 24 hr / concentration at 1 hr: female, BALB/c, mouse, serum, 50 mg/kg; for concentration at 0.25 hr: 50 mg/kg in 20% HPBCD; for concentration at 0.5 h: 0.50 hr
Protocol: HMC was prepared as a solution in 20% hydroxypropyl-beta-cyclodextrin (m:v, water). […] Three animals were allocated to each timepoint (15 min, 30 min, 1 hr, 4 hr and 24 hr). At each respective timepoint, animals were euthanased by cervical dislocation and blood collected. Urine was also collected and analysed for HMC. Free HMC was analysed by mass spectroscopy.

[7] = test system: MEL-RM melanoma cells (TRAIL sensitive); experiment: Apoptosis incidence in melanoma cells; type: cell-based
[8] = test system: Mel-AT melanoma cells (Trail +ve/Caspase 8 −ve); experiment: Apoptosis incidence in melanoma cells; type: cell-based
[9] = test system: normal fibroblasts (MRC-5); experiment: Apoptosis in normal fibroblasts; type: cell-based; conditions: same concentration (8 μM) and exposure times (24 and 48 hr) as melanoma cells
Protocol: Studies were conducted on normal fibroblasts (MRC-5) and TRAIL-sensitive melanoma cells (ME4405 and MEL-RM) using 8 μM of either DHE, or HMC over 24 and 48 hr of exposure (FIG. 9).

[10] = human, po, humans dosed orally with 200 mg

SMILES: COc1ccc(C2c3ccc(O)cc3OCC2c2ccc(O)cc2)cc1 (stereo not shown) [Compound 1, 3-(4-hydroxyphenyl)-4-(4-methoxyphenyl)chroman-7-ol]
- IC50 ([1]; Table 1, Neonatal Foreskin Fibroblasts (Human, NFF)): 86.1 ± 7.6 µM
- IC50 ([1]; NFF): 86 µM
- IC50 (rabbit kidney cells (RK)): 61 µM
- IC50 ([2]; Table 2.1): 1.21 ± 0.29 µM
- IC50 ([2]; Table 2.2 (further studies)): 2.1 µM
- IC50 ([3]; Table 2.1, Pancreatic CRL-2119): 14.1 ± 1.16 µM
- IC50 ([3]; Table 2.2, Pancreatic HPAC): 2.8 ± 0.9 µM
- IC50 (A2058 melanoma cell line; A2058, Table 2.1, Melanoma A2058): 1.2 ± 0.65 µM
- IC50 (A2058 melanoma cell line; A2058, Table 15, melanoma A2058): 1.42 ± 0.48 µM
- activity compared to DHE IC50 values (cancer cell lines): 5-10 fold
- concentration at 0.25 hr ([4]; female, BALB/c, mouse, plasma, po, 50 mg/kg p.o., Time 0.25, read-out: Free plasma concentration): 0.38 ± 0.04 µM
- concentration at 0.5 hr ([4]; female, BALB/c, mouse, plasma, po, 50 mg/kg p.o., Time 0.5, read-out: Free plasma concentration): 1.3 ± 0.2 µM
- concentration at 1 hr ([4]; female, BALB/c, mouse, plasma, po, 50 mg/kg p.o., Time 1, read-out: Free plasma concentration): 0.95 ± 0.4 µM
- concentration at 4 hr ([4]; female, BALB/c, mouse, plasma, po, 50 mg/kg p.o., Time 4, read-out: Free plasma concentration): 0.19 ± 0.08 µM
- concentration at 24 hr ([4]; female, BALB/c, mouse, plasma, po, 50 mg/kg p.o., Time 24, read-out: Free plasma concentration): 0 nM
- maximum plasma concentration of the free form ([4]; oral 50 mg/kg): 1.3 µM
- ratio of free:total ([4]; oral 50 mg/kg): 0.92
- time of maximum free concentration ([4]; oral 50 mg/kg): 30 min
- Cmax [5, 10]: 513 ng/mL
- Tmax [5, 10]: 2.17 h
- t1/2 ([5]; humans dosed orally with 200 mg): 3.99 h
- half-life ([5]; human patients, 200 mg oral, initial results): 3.99 h
- free HMC in urine ([6]; 0.5 hr): 3.3 mM
- free HMC in urine ([6]; 1 hr): 3.9 mM
- serum concentration i.p. vs i.v. ([6]; 1 hr post administration): ~4.5 fold
- free HMC in urine ([6]; 4 hr): 0.093 mM
- concentration at 0.25 hr ([6]; ip): 131 µM
- concentration at 0.5 h ([6]; ip): 31.8 µM
- concentration at 4 hr ([6]; ip, 4 hr): 0.15 µM
- concentration at 24 hr ([6]; ip): 0.17 µM
- concentration at 1 hr ([6]; ip, i.p., 1 hr post administration, read-out: serum concentration): 18.7 µM
- concentration at 1 hr ([6]; ip, ip, 1 hr, read-out: Serum HMC): 18.7 µM
- concentration at 0.25 hr ([6]; iv): 1070 µM
- concentration at 0.5 h ([6]; iv): 199 µM
- concentration at 4 hr ([6]; iv, 4 hr): 0.07 µM
- concentration at 24 hr ([6]; iv): 0.05 µM
- concentration at 1 hr ([6]; iv, i.v., 1 hr post administration, read-out: serum concentration): 3.98 µM
- concentration at 1 hr ([6]; iv, iv, 1 hr, read-out: Serum HMC): 3.98 µM
- HMC in plasma ([6]; i.p. administration, up to 1 hour post administration): 131 µM
- elimination kinetics ([6]; i.p., hours 1-4 post administration): 4.6 µM/h
- elimination kinetics ([6]; i.p., up to 1 hour post administration): 112 µM/h
- HMC in plasma ([6]; i.v. administration, up to 1 hour post administration): 1069 µM
- level of HMC in blood ([6]; i.v. in HPBCD, 15 min post administration): 1000 µM
- rate of excretion from blood ([6]; i.v., first hr post administration): ~1000 µM/h
- rate of excretion from blood ([6]; i.v., hours 1-4 post administration, assuming linear excretion): 0.97 µM/h
- serum concentration of free HMC i.p. vs orally delivered HMC ([6]; mice): ~18 fold
- Percent Apoptosis ([7]; 24 hr exposure, 1 uM): 0%
- Percent Apoptosis ([7]; 24 hr exposure, 2 uM): 8%
- Percent Apoptosis ([7]; 24 hr exposure, 4 uM): 25%
- Percent Apoptosis ([7]; 24 hr exposure, 8 uM): 39%
- Percent Apoptosis ([7]; 24 hr exposure, 20 uM): 38%
- Percent Apoptosis ([7]; 48 hr exposure, 1 uM): 1.5%
- Percent Apoptosis ([7]; 48 hr exposure, 2 uM): 8%
- Percent Apoptosis ([7]; 48 hr exposure, 4 uM): 22%
- Percent Apoptosis ([7]; 48 hr exposure, 8 uM): 38%
- Percent Apoptosis ([7]; 48 hr exposure, 20 uM): 30%
- Percent Apoptosis ([8]; 24 hr exposure, 1 uM): 0%
- Percent Apoptosis ([8]; 24 hr exposure, 2 uM): 6%
- Percent Apoptosis ([8]; 24 hr exposure, 4 uM): 9%
- Percent Apoptosis ([8]; 24 hr exposure, 8 uM): 23%
- Percent Apoptosis ([8]; 24 hr exposure, 20 uM): 24%
- Percent Apoptosis ([8]; 48 hr exposure, 1 uM): 1%
- Percent Apoptosis ([8]; 48 hr exposure, 2 uM): 7%
- Percent Apoptosis ([8]; 48 hr exposure, 4 uM): 25%
- Percent Apoptosis ([8]; 48 hr exposure, 8 uM): 59%
- Percent Apoptosis ([8]; 48 hr exposure, 20 uM): 35%
- induction of apoptosis in normal fibroblasts [9]: do not induce apoptosis
